Experimental data reported in patent US9067935B2 (Janssen Pharmaceutica, NV, priority 2010, dated 2015).
“And” between values parts separate entries of the source, which are not always exact repeats. Equal values may be shown once. Read-outs that look alike come from different tables or passages of the source.

How the values were obtained:
canine TRPM8 = canine TRPM8 (Canis lupus familiaris, UniProt Q1A7N1); assay: In Vitro Canine TRPM8 Functional Assay (intracellular Ca2+ fluorescence, icilin challenge); type: cell-based; details: for IC50: icilin at ~80% maximal response
Sequence of canine TRPM8 (Q1A7N1 1-1104): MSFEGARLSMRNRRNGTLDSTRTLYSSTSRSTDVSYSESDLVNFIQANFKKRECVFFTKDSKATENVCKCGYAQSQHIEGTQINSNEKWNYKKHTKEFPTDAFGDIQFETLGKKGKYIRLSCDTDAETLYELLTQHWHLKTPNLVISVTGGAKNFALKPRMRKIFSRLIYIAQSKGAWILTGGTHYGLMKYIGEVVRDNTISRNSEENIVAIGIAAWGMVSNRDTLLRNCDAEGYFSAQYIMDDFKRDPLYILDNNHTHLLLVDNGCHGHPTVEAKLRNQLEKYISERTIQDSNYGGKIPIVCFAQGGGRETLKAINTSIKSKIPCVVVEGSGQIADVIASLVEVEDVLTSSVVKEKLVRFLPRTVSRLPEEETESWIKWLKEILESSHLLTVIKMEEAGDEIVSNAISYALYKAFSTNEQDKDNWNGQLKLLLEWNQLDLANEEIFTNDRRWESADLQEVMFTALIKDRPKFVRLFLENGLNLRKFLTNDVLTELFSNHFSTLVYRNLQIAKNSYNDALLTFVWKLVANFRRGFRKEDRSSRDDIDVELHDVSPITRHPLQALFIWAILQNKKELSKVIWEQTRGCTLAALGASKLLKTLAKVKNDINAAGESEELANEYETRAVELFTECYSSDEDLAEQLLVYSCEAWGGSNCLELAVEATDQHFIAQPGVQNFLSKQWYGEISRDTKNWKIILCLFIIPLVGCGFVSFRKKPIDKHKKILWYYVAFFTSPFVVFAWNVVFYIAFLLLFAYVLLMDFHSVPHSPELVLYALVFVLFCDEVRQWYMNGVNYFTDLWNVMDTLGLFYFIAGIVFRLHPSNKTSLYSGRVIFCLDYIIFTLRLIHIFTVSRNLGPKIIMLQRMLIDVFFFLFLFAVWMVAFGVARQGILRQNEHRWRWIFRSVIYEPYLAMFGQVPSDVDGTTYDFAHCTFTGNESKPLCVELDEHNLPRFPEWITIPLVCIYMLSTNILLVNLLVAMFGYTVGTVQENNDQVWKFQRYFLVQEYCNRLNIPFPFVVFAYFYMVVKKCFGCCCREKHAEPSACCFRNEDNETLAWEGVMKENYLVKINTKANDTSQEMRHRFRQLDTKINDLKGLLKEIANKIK
Summary of the method: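 Canine TRPM8 stably expressed in HEK293; compound added 5 min before icilin challenge (~80% max response), with fluorescent Ca2+ signal tracked throughout.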

Male Sprague Dawley rats = assay: Inhibition of Icilin-Induced "Wet-Dog" Shakes in Rats; type: in vivo; details: rat, dose 10, p.o.
Procedure: Similar shaking or jumping behavior was also evident in mice, rabbits, cats, dogs and monkeys. In humans, icilin produced a sensation of coolness on contact with mucous membranes, cold prickling when 0.1 mg was dropped on the tongue and coldness in the mouth, pharynx and chest lasting 30-60 minutes when 5-10 mg was ingested orally (Wei E T, Seid D A, J Pharm Pharmacol. 1983, 35, 110). The inhibition or reversal of icilin-induced shaking behaviors in rodents provides evidence for the utility of TRPM8 antagonists of the formula (I) in treating or preventing a disease, syndrome, disorder, or condition in a subject in which the disease, syndrome, disorder or condition is affected by the modulation of TRPM8 receptors.
Male Sprague Dawley rats (220-450 g, Charles River Labs, n=6-9/treatment) may be used to evaluate the ability of selected compounds of the formula (I) to block icilin-induced “wet-dog” shakes (WDS). Compounds of the formula (I) may be administered in an appropriate vehicle, such as hydroxypropyl-β-cyclodextrin (HPIβCD), methocellulose, 10% Solutol, or H2O, or the like, by the appropriate route, i.p. or p.o., 30-120 minutes before icilin. Icilin may be administered in PEG-400 or 10% solutol/H2O, at 1.0 or 3.0 mg/kg, i.p. and spontaneous “wet-dog” shakes may be counted 10-20 minutes post-icilin.

TRPM8 = TRPM8 (Mus musculus (Mouse), UniProt Q8R4D5); details: TRPM8 transfected cells (Behrendt H J et al. 2004); cited from earlier work
Sequence of TRPM8 (Q8R4D5 whole entry): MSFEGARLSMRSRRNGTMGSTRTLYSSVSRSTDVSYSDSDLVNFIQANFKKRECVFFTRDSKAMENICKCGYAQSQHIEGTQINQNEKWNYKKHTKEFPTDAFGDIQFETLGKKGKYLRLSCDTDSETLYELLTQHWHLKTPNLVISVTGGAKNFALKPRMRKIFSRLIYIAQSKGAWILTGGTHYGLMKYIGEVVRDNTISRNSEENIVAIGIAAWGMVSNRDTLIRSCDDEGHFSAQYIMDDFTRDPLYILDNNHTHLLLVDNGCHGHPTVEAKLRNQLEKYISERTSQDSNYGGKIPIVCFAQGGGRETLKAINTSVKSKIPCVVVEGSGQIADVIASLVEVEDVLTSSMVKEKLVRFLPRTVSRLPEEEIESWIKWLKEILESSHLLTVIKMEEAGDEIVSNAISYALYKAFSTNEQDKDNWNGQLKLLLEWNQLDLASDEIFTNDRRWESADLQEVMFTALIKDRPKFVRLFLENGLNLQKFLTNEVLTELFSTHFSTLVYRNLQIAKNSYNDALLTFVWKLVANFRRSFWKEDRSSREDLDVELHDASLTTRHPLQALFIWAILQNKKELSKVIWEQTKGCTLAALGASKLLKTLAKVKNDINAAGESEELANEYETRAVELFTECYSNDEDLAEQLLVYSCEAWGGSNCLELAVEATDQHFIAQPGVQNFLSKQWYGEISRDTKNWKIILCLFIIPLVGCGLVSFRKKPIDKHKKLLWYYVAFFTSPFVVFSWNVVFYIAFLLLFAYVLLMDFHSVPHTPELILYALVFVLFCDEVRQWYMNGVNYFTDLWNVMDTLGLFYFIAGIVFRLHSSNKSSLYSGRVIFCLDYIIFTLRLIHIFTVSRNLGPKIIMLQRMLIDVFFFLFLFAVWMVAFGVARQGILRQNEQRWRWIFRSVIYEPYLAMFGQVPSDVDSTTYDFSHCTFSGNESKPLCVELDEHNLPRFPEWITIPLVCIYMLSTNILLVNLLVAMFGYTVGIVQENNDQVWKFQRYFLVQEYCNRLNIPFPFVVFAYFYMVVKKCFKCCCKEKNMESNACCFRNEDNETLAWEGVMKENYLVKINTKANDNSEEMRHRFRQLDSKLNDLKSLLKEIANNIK

[1] = HEK293 cells stably expressing canine TRPM8
[2] = HEK293, @ 0.2 μM, HEK293 cells stably expressing canine TRPM8, read-out: % Inh (%) @ 0.2 μM
[3] = vehicle 20% HPβCD, form CO2−Na+
[4] = HEK293, read-out: % Inh (%) @ 0.2 μM

| inhibition at 0.2 µM (canine TRPM8; [2]) [%] | Structure (SMILES) | % Inh (%) @ 0.2 μM (canine TRPM8; [1]) [%] | IC50 (canine TRPM8; [1]) | also measured |
| --- | --- | --- | --- | --- |
| 97 | O=S(=O)(c1ccccc1)N(Cc1ccc(F)c(C(F)(F)F)c1)c1nc2ccc(Cl)cn2c1Cl [Compound 8] | 96 | 18.3 nM and 23.5 nM and 28.6 nM | % Inhibition (Male Sprague Dawley rats; vehicle 10% Solutol, form Hydrochloride): 15.5% |
| 100 | Cc1c(N(Cc2ccc(C(F)(F)F)c(F)c2)S(=O)(=O)c2ccccc2)nc2ccc(Cl)cn12 [Compound 38] | – | – | % Inhibition (Male Sprague Dawley rats; vehicle 20% HPβCD, form Hydrochloride): 6.5% |
| – | Cc1c(N(Cc2ccc(OC(F)(F)F)cc2)S(=O)(=O)c2ccc(C(=O)[O-])cc2)nc2ccccn12.[Na+] [Compound 107] | 101 | 5.68 nM | % Inhibition (Male Sprague Dawley rats; [3]): −20.6% |
| – | CC(C)c1c(N(Cc2ccc(OC(F)(F)F)cc2)S(=O)(=O)c2ccc(C(=O)[O-])cc2)nc2ccccn12.[Na+] [Compound 109] | 101 | 2.31 nM | % Inhibition (Male Sprague Dawley rats; [3]): −7.5% |
| – | Cc1c(N(Cc2ccc(F)c(C(F)(F)F)c2)S(=O)(=O)c2ccc(C(=O)O)cc2)nc2ccc(Cl)cn12 [Compound 115] | – | – | inhibition at 0.2 µM (canine TRPM8; [4]): 96% |
| 102 | COC(=O)c1ccc(S(=O)(=O)N(Cc2ccc(OC(F)(F)F)cc2)c2nc3ccccn3c2Cl)cc1 [Compound 116] | – | 5.29 nM | – |
| – | Cc1cccn2c(C)c(N(Cc3ccc(OC(F)(F)F)cc3)S(=O)(=O)c3ccc(C(=O)[O-])cc3)nc12.[Na+] [Compound 117] | 101 | 13.5 nM | – |
| 100 | COC(=O)c1ccc(S(=O)(=O)N(Cc2ccc(OC(F)(F)F)cc2)c2nc3ccc(F)cn3c2C)cc1 [Compound 118, Methyl 4-(N-(6-fluoro-3-methylimidazo[1,2-a]pyridin-2-yl)-N-(4-(trifluoromethoxy)benzyl)sulfamoyl)benzoate] | – | 18 nM | – |
| 100 | COC(=O)c1ccc(S(=O)(=O)N(Cc2ccc(F)c(C(F)(F)F)c2)c2nc3ccc(F)cn3c2C)cc1 [Compound 119, Methyl 4-(N-(6-fluoro-3-methylimidazo[1,2-a]pyridin-2-yl)-N-(4-fluoro-3-(trifluoromethyl)benzyl)sulfamoyl)benzoate] | – | 23.9 nM | – |
| – | Cc1c(N(Cc2ccc(OC(F)(F)F)cc2)S(=O)(=O)c2ccc(C(=O)O)cc2)nc2ccc(F)cn12 [Compound 120, Sodium 4-(N-(6-fluoro-3-methylimidazo[1,2-a]pyridin-2-yl)-N-(4-(trifluoromethoxy)benzyl)sulfamoyl)benzoate] | – | 12.2 nM | inhibition at 0.2 µM (canine TRPM8; [4]): 102% |
| – | Cc1c(N(Cc2ccc(F)c(C(F)(F)F)c2)S(=O)(=O)c2ccc(C(=O)O)cc2)nc2ccc(F)cn12 [Compound 121, Sodium 4-(N-(6-fluoro-3-methylimidazo[1,2-a]pyridin-2-yl)-N-(4-fluoro-3-(trifluoromethyl)benzyl)sulfamoyl)benzoate] | – | 32.8 nM | inhibition at 0.2 µM (canine TRPM8; [4]): 101% |
| – | Cc1c(N(Cc2ccc(OC(F)(F)F)cc2)S(=O)(=O)c2ccc(C(=O)O)cc2)nc2c(F)cccn12 [Compound 122] | 99 | 4.03 nM | – |
| – | O=C1NC(c2cccc([N+](=O)[O-])c2)=CCN1c1ccccc1O [icilin] | – | – | EC50 (TRPM8): 200 nM |
